# Data from patent publication US8148364B2, “Substituted bicyclic pyrimidone derivatives” (Sanofi-Aventis, priority 2005, dated 2012).
# Target: GSK3β (Homo sapiens, UniProt P49841)
# Test: Inhibitory activity against GSK3β (33P-ATP phosphorylation of prephosphorylated GS1 peptide, two protocols)
# Format: biochemical
# Method: Two different protocols can be used. In a first protocol: 7.5 μM of prephosphorylated GS1 peptide and 10 μM ATP (containing 300,000 cpm of 33P-ATP) were incubated in 25 mM Tris-HCl, pH 7.5, 0.6 mM DTT, 6 mM MgCl2, 0.6 mM EGTA, 0.05 mg/ml BSA buffer for 1 hour at room temperature in the presence of GSK3beta (total reaction volume: 100 microliters). In a second protocol: 4.1 μM of prephosphorylated GS1 peptide and 42 μM ATP (containing 260,000 cpm 33P-ATP) were incubated in 80 mM Mes-NaOH, pH 6.5, 1 mM Mg acetate, 0.5 mM EGTA, 5 mM 2-mercaptoethanol, 0.02% Tween 20, 10% glycerol buffer for 2 hours at room temperature in the presence of GSK3beta. Inhibitors were solubilized in DMSO (final solvent concentration in the reaction medium, 1%). The reaction was stopped with 100 microliters of a solution made of 25 g polyphosphoric acid (85% P2O5), 126 ml 85% H3PO4, H2O to 500 ml and then diluted to 1:100 before use. An aliquot of the reaction mixture was then transferred to Whatman P81 cation exchange filters and rinsed with the solution described above. Incorporated 33P radioactivity was determined by liquid scintillation spectrometry. The phosphorylated GS-1 peptide used in the example was the same one as reported in Woodgett, J. R. (1989) Analytical Biochemistry 180, 237-241 and had the same sequence as reported therein, which reference is incorporated herein by reference in its entirety.
# Sequence of GSK3β (P49841 whole entry): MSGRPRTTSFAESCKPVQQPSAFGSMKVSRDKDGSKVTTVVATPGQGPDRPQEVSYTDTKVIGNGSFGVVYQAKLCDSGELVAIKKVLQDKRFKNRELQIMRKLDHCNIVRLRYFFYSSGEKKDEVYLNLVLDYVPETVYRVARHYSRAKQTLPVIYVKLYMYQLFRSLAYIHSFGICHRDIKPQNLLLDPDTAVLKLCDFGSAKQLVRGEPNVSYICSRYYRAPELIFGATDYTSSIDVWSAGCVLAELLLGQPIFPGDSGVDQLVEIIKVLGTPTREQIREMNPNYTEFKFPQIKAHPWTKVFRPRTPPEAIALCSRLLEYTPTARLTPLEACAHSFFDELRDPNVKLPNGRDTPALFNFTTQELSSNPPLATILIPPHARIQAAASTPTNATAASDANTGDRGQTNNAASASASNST
compound,measurement,value
"COc1cc(F)ccc1C(=O)NC1CCCn2c1nc(-c1ccncn1)cc2=O (racemic) [compound No. 33 of table 1, (+/−) 4-Fluoro-2-methoxy-N-(4-oxo-2-pyrimidin-4-yl-6,7,8,9-tetrahydro-4H-pyrido[1,2-a]pyrimidin-9-yl)benzamide]",IC50,5 nM
